{"source": "patent US6028102A", "about": "“Anticonvulsant drugs and pharmaceutical compositions thereof” (priority 1998, dated 2000)", "key": {"[1]": {"conditions": "mice; Kohn et al 1988, 1990, 1991; Conley and Kohn, 1987; cited from earlier work"}, "[2]": {"conditions": "in vivo, cited from earlier work"}, "[3]": {"assay": "Screening of anticonvulsant activity", "type": "in vivo, mice", "conditions": "for anticonvulsant activity: ip administration (300 mg) to mice; for anticonvulsant activity in words: overall finding of the study", "procedure": "Screening of Anticonvulsant Activity\nCompounds I-XI were screened in carworth farm #1 mice (ip--in a volume of 0.01 mL/g of body weight) and sprague-Dawley rats (po--in a volume of 0.004 mL/g of body weight) for their anticonvulsant activity and neurotoxicity by the NIH epilepsy Branch [Porter et al, 1984]. The screening procedure involved the following:\n1) the maximal electroshock (MES) test, which measures seizure spread; 2) the subcutaneous pentylenetetrazol test (sc Met test) which measures seizure threshold; and 3) the rotored ataxia test which assesses neurotoxicity.\nApplicants therefore decided to derivatize glycinamide and the above dipeptides by synthesizing their N-acetyl and N'-benzyl derivatives (compounds IV-VIII). […] Therefore, this compound was further analyzed quantitatively and its ED50 data and protective indices in comparison to phthaloyl glycinamide and valproyl glycinamide--TV 1901 [17] are presented in Table 2. As a consequence of their anticonvulsant activity, the pharmacokinetics of compounds VII and IX were investigated following iv administration (400 mg) to six dogs, and the mean plasma levels of compounds VII and IX are presented in FIGS. 1 and 2, respectively."}, "[4]": {"conditions": "mice and rats / rodents; cited from earlier work"}, "[5]": {"conditions": "electroshock, metrazole and homocysteine; Freed et al, 1979; cited from earlier work"}, "[6]": {"conditions": "mice; Freed, 1985; cited from earlier work"}, "[7]": {"conditions": "ip, mice; data from Salach et al (1994), Hadad and Bialer (1995); cited from earlier work"}, "[8]": {"conditions": "ip, mice; data from Salach et al (1994), Hadad and Bialer (1995); cited from earlier work", "remark": "listed apart in the source"}, "[9]": {"conditions": "dogs, iv, mean, Table 3, cited from earlier work; for CL / MRT / Vss / Vβ / t1/2: data from Salach et al 1994, Hadad and Bialer 1995"}, "[10]": {"conditions": "ip, mice, cited from earlier work; for sc Met, ED50: data from Salach et al (1994), Hadad and Bialer (1995)"}}, "note": "Like-named read-outs stand apart in the source and are kept apart here. Peptide text beside a SMILES is read from it. * marks the point of attachment. Cbz = O=C(OCc1ccccc1)*", "data": [{"smiles": "CC(=O)N[C@@H](C(=O)NCc1ccccc1)c1ccc[nH]1", "note": "(racemic) [(R,S)-2-acetamido-N-benzyl-2-pyrolacetamide]", "values": [{"measurement": "anticonvulsant activity in MES test", "setting": "[1]", "value": "more potent than the analogous alanine and phenylglycine derivatives"}]}, {"smiles": "CC(=O)NC(C)C(=O)NCc1ccccc1", "note": "(racemic) [N-acetyl,N'-benzyl DL-alaninamide]", "values": [{"measurement": "anticonvulsant activity in MES test", "setting": "[1]", "value": "marked anticonvulsant activity"}]}, {"smiles": "CC(=O)NC(C(=O)NCc1ccccc1)c1ccccc1", "note": "(racemic) [N-acetyl,N'-benzyl DL-phenyl glycinamide]", "values": [{"measurement": "anticonvulsant activity in MES test", "setting": "[1]", "value": "marked anticonvulsant activity"}]}, {"smiles": "NCCCC(=O)O", "note": "[GABA]", "values": [{"measurement": "effect upon oral or systemic administration", "setting": "[2]", "value": "neither GABA nor glycine are effective upon oral or systemic administration"}, {"measurement": "blood-brain barrier passage", "setting": "[2]", "value": "inability to cross the blood brain barrier"}]}, {"smiles": "NCC(=O)NCC(=O)O", "note": "[I, Glycylglycine] (H-Gly-Gly-OH)", "values": [{"measurement": "anticonvulsant activity", "setting": "[3]", "value": "did not show anticonvulsant activity"}]}, {"smiles": "NCC(=O)NCC(N)=O", "note": "[II, Glycylglycinamide]", "values": [{"measurement": "anticonvulsant activity", "setting": "[3]", "value": "did not show anticonvulsant activity"}]}, {"smiles": "NCCCC(=O)NCC(N)=O", "note": "[III, Gaboylglycinamide]", "values": [{"measurement": "anticonvulsant activity", "setting": "[3]", "value": "did not show anticonvulsant activity"}]}, {"smiles": "CCC=C(CCC)C(=O)NCC(N)=O", "note": "[N-2-enevalproyl glycinamide]", "values": [{"measurement": "anticonvulsant activity in words", "setting": "[4]", "value": "good anticonvulsant activity in rodents"}]}, {"smiles": "O=C(O)CNC(=O)CNC(=O)OCc1ccccc1", "note": "[X, N-benzyloxycarbonyl glycylglycine] (Cbz-Gly-Gly-OH)", "values": [{"measurement": "anticonvulsant activity in words", "setting": "[3]", "value": "inactive as anticonvulsant"}]}, {"smiles": "NC(=O)CNC(=O)CNC(=O)OCc1ccccc1", "note": "[XI, N-Benzyloxycarbonyl Glycylglycinamide] (Cbz-Gly-Gly-NH2)", "values": [{"measurement": "anticonvulsant activity in words", "setting": "[3]", "value": "inactive as anticonvulsant"}]}, {"smiles": "C[N+](C)(C)CC(=O)O", "note": "[betaine, N,N,N-trimethyl glycine]", "values": [{"measurement": "block of induction of convulsions", "setting": "[5]", "value": "block the induction of convulsions"}, {"measurement": "antagonism of strychnine-induced seizures", "setting": "[6]", "value": "antagonized"}]}, {"smiles": "CC(=O)NCC(=O)NCC(N)=O", "note": "[compound VI, N-Acetylglycylglycinamide]", "values": [{"measurement": "anticonvulsant activity in words", "setting": "[3]", "value": "inactive as anticonvulsant"}]}, {"smiles": "CC(C)C(C(=O)NCC(N)=O)C(C)C", "note": "[diisopropyl acety glycinamide]", "values": [{"measurement": "anticonvulsant activity in words", "setting": "[4]", "value": "good anticonvulsant activity in rodents"}]}, {"smiles": "CN(C)CC(=O)O", "note": "[dimethylglycine]", "values": [{"measurement": "antagonism of strychnine-induced seizures", "setting": "[6]", "value": "antagonized"}]}, {"smiles": "NCC(=O)O", "note": "[glycine]", "values": [{"measurement": "effect upon oral or systemic administration", "setting": "[2]", "value": "neither GABA nor glycine are effective upon oral or systemic administration"}, {"measurement": "blood-brain barrier passage", "setting": "[2]", "value": "does not readily cross the blood-brain barrier"}]}, {"smiles": "NC(=O)CN1C(=O)c2ccccc2C1=O", "note": "[phthaloyl glycinamide, phthaloylglycinamide]", "values": [{"measurement": "MES, ED50", "setting": "[7]", "value": 94, "unit": "mg/kg"}, {"measurement": "PI, MES (Protective index, ratio of TD50 to ED50)", "setting": "[7]", "value": "> 64"}, {"measurement": "Neurotoxicity, TD50", "setting": "[8]", "value": "> 600", "unit": "mg/kg"}, {"measurement": "CL", "setting": "[9]", "value": 9, "unit": "L/h"}, {"measurement": "MRT", "setting": "[9]", "value": "4.6 ± 0.9", "unit": "h"}, {"measurement": "Vss", "setting": "[9]", "value": "46 ± 13", "unit": "L"}, {"measurement": "Vβ", "setting": "[9]", "value": "48 ± 13", "unit": "L"}, {"measurement": "t1/2", "setting": "[9]", "value": "3.4 ± 0.7", "unit": "h"}, {"measurement": "fe (fraction excreted unchanged in urine)", "setting": "[9]; data from Salach et al 1994, 720 min", "value": "7.0 ± 0.7", "unit": "%"}, {"measurement": "sc Met, ED50", "setting": "[10]", "value": "> 400", "unit": "mg/kg"}]}, {"smiles": "CNCC(=O)O", "note": "[sarcosine, N-methylglycine]", "values": [{"measurement": "antagonism of strychnine-induced seizures", "setting": "[6]", "value": "antagonized"}]}, {"smiles": "CC1(C)C(C(=O)NCC(N)=O)C1(C)C", "note": "[tetramethylcyclopropylcarbonyl glycinamide]", "values": [{"measurement": "anticonvulsant activity in words", "setting": "[4]", "value": "good anticonvulsant activity in rodents"}]}, {"smiles": "CCC(C)C(CC)C(=O)NCC(N)=O", "note": "(centres unmarked) [valnoctyl glycinamide]", "values": [{"measurement": "anticonvulsant activity in words", "setting": "[4]", "value": "good anticonvulsant activity in rodents"}]}, {"smiles": "CCCC(CCC)C(=O)NCC(N)=O", "note": "[valproyl glycinamide, N-valproyl glycinamide]", "values": [{"measurement": "MES, ED50", "setting": "[7]", "value": 152, "unit": "mg/kg"}, {"measurement": "PI, MES (Protective index, ratio of TD50 to ED50)", "setting": "[7]", "value": 2.4}, {"measurement": "CL", "setting": "[9]", "value": "3 ± 0.8", "unit": "L/h"}, {"measurement": "MRT", "setting": "[9]", "value": "4.6 ± 0.7", "unit": "h"}, {"measurement": "Vss", "setting": "[9]", "value": "12 ± 3", "unit": "L"}, {"measurement": "Vβ", "setting": "[9]", "value": "11 ± 3", "unit": "L"}, {"measurement": "t1/2", "setting": "[9]", "value": "2.7 ± 0.5", "unit": "h"}, {"measurement": "anticonvulsant activity in words", "setting": "[4]", "value": "good anticonvulsant activity in both mice and rats"}, {"measurement": "PI, sc Met (Protective index, ratio of TD50 to ED50)", "setting": "[10]; data from Hadad and Bialer (1995)", "value": 2.9}, {"measurement": "sc Met, ED50", "setting": "[10]", "value": 127, "unit": "mg/kg"}]}]}
